Tested on: BJ1 (normal skin fibroblasts)
Experiment: MTT assay, normal cell line BJ1
Type: cell-based
Conditions: Skin fibroblast, 48 hours
Method: The percentage of the cell viability treated with the newly synthesized compounds was evaluated using MTT assay (3-(4,5-dimethylthiazol-2-yl)-2,5-diphenyl tetrazolium bromide). All the subsequent steps were done in a sterile Laminar flow class II biosafety cabinet (Baker, SG406INT, Sanford, ME, USA). DMEM was used as a suspension medium for breast cancer (MCF7), prostate cancer (PC3), and pancreatic cancer (PACA2), while normal cell line (BJ1) was suspended in DMEM-F12 medium, a 1% antibiotic-antimycotic mixture (10 000 U ml^−1 potassium penicillin, 10 000 μg ml^−1 streptomycin sulfate, and 25 μg ml^−1 amphotericin B), and 1% L-glutamine at 37 °C under 5% CO2.
Cells were cultured for 10 days and then seeded at a concentration of 10 × 10^4 cells per well in fresh complete growth medium in 96-well microtiter plastic plates at 37 °C for 24 hours under 5% CO2 using a water-jacketed carbon dioxide incubator (Sheldon, TC2323). Media were aspirated, serum-free fresh medium was added, and cells were incubated either alone (negative control) or with different concentrations of the synthesized chalcone derivatives to a final concentration of (100–50–25–12.5–6.25–3.125–0.78 and 1.56 μg ml^−1). After incubation for 48 hours, the medium was aspirated and 40 μl of MTT salt ([…]) was added to each well and incubated for another four hours at 37 °C under 5% CO2. To stop the reaction and dissolve the formed crystals, 200 μl of 10% sodium dodecyl sulfate (SDS) in deionized water was added to each well and incubated overnight at 37 °C.
The absorbance was then measured at 595 nm and a reference wavelength of 620 nm using a microplate multi-well reader (Bio-Rad Laboratories Inc., model 3350). Statistical significance was tested between the samples and the negative control (cells with vehicle) using an independent t-test using the SPSS 11 program. DMSO was the vehicle used for the dissolution of the synthesized chalcones, and its final concentration on the cells was less than 0.2%. The percentage of change in viability was calculated according to the formula: ((reading of extract/reading of negative control) − 1) × 100. A Probit analysis was carried out for the determination of IC50 using the SPSS 11 program.

## COc1cccc2c1C(=O)c1c(O)c3c(c(O)c1C2=O)C[C@@](O)(C(=O)CO)C[C@@H]3O[C@H]1C[C@H](N)[C@H](O)[C@H](C)O1 [Doxorubicin, reference compound]
  IC50: 13.6 ± 0.28 µM
